The text below walks through data of patent US12085575B2, “Compositions and methods for detecting proteinopathies” (BOARD OF SUPERVISORS OF LOUISIANA STATE UNIVERSITY AND …, priority 2011, dated 2024).

Molecules are shown by their SMILES. Residues, ends and D or L forms follow the SMILES beside them. *: point of attachment. Cbz = O=C(OCc1ccccc1)*

The assay has as its system HA-polyubiquitylated proteins. The experiment in a line: UV-induced degradation of HA-polyubiquitylated proteins (anti-HA Western blot). In kind it is cell-based, human. The following applies: for UV-induced degradation of HA-Lys48-linked polyubiquitylated proteins: HA-Lys48 only ubiquitin construct; for UV-induced decrease of HA-polyubiquitylated proteins: MG132 1 μM or Bafl 1 nM 18 h, 3 h recovery; for UV-induced decrease of HA-polyubiquitylated proteins / UV-induced degradation of HA-polyubiquitylated proteins: UV 25 mJ/m2; for UV-induced degradation of HA-polyubiquitylated proteins: MG132 1 nm or 3-MA 10 nm for 18 h. The method, then: Immunoblotting Analysis of HA-ubiquitin conjugated proteins in cells exposed to UV radiation. Cells ([…]) were transfected with a hemagglutinin (HA)-ubiquitin plasmid using the PolyFect transfection reagent (Qiagen; Valencia, CA) as described (24). Twenty-four h after transfection, cells were treated with either proteasome inhibitor MG132 (1 μM) (Boston Biochemicals; Cambridge, MA) or autophagy inhibitor Bafilomycin A1 (Bafl) (1 nM) (Sigma-Aldrich) or 3-Methyladenine (3-MA) (100 nM) for 18 h. Cells were exposed to UV radiation (25 mJoules, using BioRad GS Gene Linker™ UV Chamber) and/or left untreated. Cells were then allowed to recover in the presence of inhibitors for 3 hr. Cell lysis, SDS-PAGE, and immunoblotting analysis to detect HA-ubiquitin conjugated proteins using anti-HA antibodies was carried out as described herein.
Decrease in the steady state levels of polyubiquitylated proteins could be due to their increased deubiquitylation or increased degradation via the 26S proteasome. Also, the ubiquitin antibody used in the experiment herein is known to cross-react with free ISG15/UCRP (44), and ISG15 protein is elevated in A-T cells (20). An HA-ubiquitin construct was transfected and then the steady state levels of the HA-polyubiquitylated proteins was assessed (to rule out the possibility of protein polyubiquitylation versus protein polyISGlyation), in the absence or presence of the proteasome inhibitor MG132 (to rule out the possibility of protein deubiquitylation versus protein degradation), in UV treated A-T and ATM+ cells. In FIG. 8B, A-T and ATM+ cells were transfected with a HA-ubiquitin construct. Cells were then treated with MG132 (1 μM) or Bafl (1 nM) for 18 hours and exposed to UV radiation (25 mJ/m2). After recovery in the presence of inhibitors for an additional three hours, cells were lysed. Cell extracts were analyzed by Western blotting for HA-polyubiquitylated proteins and actin using anti-HA and anti-actin antibodies respectively. Intensity of the total HA-polyubiquitylated proteins was quantitated using BioRad Quantity One software and results shown in FIG. 8C.
To complement the results shown in FIG. 8B, another construct was used that expresses HA-ubiquitin and that can preferentially make polyubiquitin chains linked through Lys48 on the substrates (20). In FIG. 8D, A-T and ATM+ cells were transfected with HA-Lys48 only ubiquitin construct. The inhibitor and UV treatments, cell lysis, SDS-PAGE, and immunoblotting analysis to detect HA-ubiquitin conjugated proteins using anti-HA antibodies was carried out as described herein. The experiment was repeated two times with the reproducible results. Similar results were obtained using this distinct HA-ubiquitin construct (FIG. 8D) as obtained herein (FIG. 8B); UV induced MG132- and Bafilomycin-resistant degradation of HA-Lys48-linked polyubiquitylated proteins in A-T cells, but not in ATM+ cells.
For FIG. 14A, HA-ubiquitin-transfected A-T/LV-control shRNA cells were exposed to UV (25 mJ/m2). After three hours of recovery, assessment of HA-polyubiquitylated proteins was carried out as described herein for FIG. 8B. In FIG. 14B, HA-ubiquitin-transfected A-T/LV-control shRNA cells were treated with Bafl (1 nm for 18 h). Cells were then exposed to UV (25 mJ/m2). After three hours of recovery in the presence of the inhibitor, assessment of HA-polyubiquitylated proteins was carried out as described for FIG. 14A. For FIG. 14C, HA-ubiquitin-transfected A-T/LV-control shRNA cells were treated with MG132 (1 nm for 18 h). Cells were then exposed to UV (25 mJ/m2). After three hours of recovery in the presence of the inhibitor, assessment of HA-polyubiquitylated proteins was carried out as described for FIG. 14A. For FIG. 14D, HA-ubiquitin-transfected A-T/LV-control shRNA cells were treated with 3-MA (10 nm for 18 h). Cells were then exposed to UV (25 mJ/m2). […]
In general terms: Immunoblotting shows a protein as a band on a membrane.

As to `CO/C1=C\C(C)=C\[C@@H](C)[C@@H](O)[C@@H](C)C/C(C)=C/C=C/[C@H](OC)[C@@H]([C@@H](C)[C@@H](O)[C@H](C)[C@@]2(O)C[C@@H](O)[C@H](C)[C@@H](C(C)C)O2)OC1=O` [Bafilomycin A1], where the note is “A-T cells”, the “UV-induced degradation of HA-Lys48-linked polyubiquitylated proteins” value was “resistant” and the “UV-induced decrease of HA-polyubiquitylated proteins” value (from here on “UV-induced decrease”) is given as “failed to block”. For the same compound, under “ATM+ cells”, the “UV-induced decrease” value was “significantly blocked”.
As to `CC(C)C[C@@H](C=O)NC(=O)[C@H](CC(C)C)NC(=O)[C@H](CC(C)C)NC(=O)OCc1ccccc1` [MG132] (Cbz-Leu-Leu-Leu-aldehyde), the “UV-induced degradation of HA-Lys48-linked polyubiquitylated proteins” value (A-T cells) is recorded as “resistant”. In addition, the “UV-induced decrease” value (A-T cells) is given as “failed to protect” and the “UV-induced decrease” value (ATM+ cells) was “completely blocked”. In addition, the “UV-induced degradation of HA-polyubiquitylated proteins” value reads like this: (A-T/LV-ISG15 shRNA (ISG15-silenced) cells) “completely block”; (A-T/LV-control shRNA cells) “failed to block”.
